The values that follow come from patent publication US20220241249A1, “PHARMACEUTICAL COMPOSITION AND KIT CONTAINING NOVEL PENAM DERIVATIVE OR SALT THEREOF AND ONE OR MORE COMPOUNDS SELECTED FROM beta-LACTAMASE INHIBITORY COMPOUND AND ANTIBACTERIAL COMPOUND OR SALTS THEREOF” (priority 2019, published 2022).

Converted amounts (≈) assume the structure as drawn.

As usually defined, the MIC is the smallest concentration in the dilution series that meets the test's criterion for growth inhibition.

Test [1] relates to IMP-1-containing Pseudomonas aeruginosa strain (S-2838). The test can be described thus: Antibacterial activity evaluation test, MIC by broth microdilution (CLSI). The settings on record: Pseudomonas aeruginosa. The test is classed as cell-based. The gist of the method: (§1)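 Overnight Mueller Hinton agar cultures were suspended to 0.5 McFarland, diluted 10-fold and used to inoculate cation-adjusted Mueller Hinton broth containing test compound. Plates were incubated at 35° C. for 16 to 20 hours; MIC (μg/mL) was the lowest concentration without visible growth.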
In general terms: In broth dilution the organism is exposed to a series of concentrations in liquid medium.

Test [2] has as its system KPC-2-containing Klebsiella pneumoniae strain (Y-995). The description is as above. Type of test: cell-based. The settings on record: Klebsiella pneumoniae. The gist of the method:
as §1

The test system of test [3] is OXA-48-containing Klebsiella pneumoniae strain (Y-1062). The test is described as above. Type of test: cell-based. The settings on record: Klebsiella pneumoniae. The procedure, abridged:
as §1

The subject of test [4] is NDM-1-containing Klebsiella pneumoniae strain (Y-1007). Described as above. The test is classed as cell-based. The settings on record: Klebsiella pneumoniae. The procedure, abridged: as §1
Test [5] deals with AmpC-derepressed Pseudomonas aeruginosa mutant strain (S-3028). The test is described as above. Type of test: cell-based. The settings on record: Pseudomonas aeruginosa. The gist of the method:
as §1

Test [6] has as its system VIM-2-containing Pseudomonas aeruginosa strain (S-3779). The description is as above. The test is classed as cell-based. The settings on record: Pseudomonas aeruginosa. The procedure, abridged: as §1
Test [7] has as its system GES-19 and GES-20-containing Pseudomonas aeruginosa strain (S-3759). The test is described as above. The test is classed as cell-based. As to conditions: Pseudomonas aeruginosa. The gist of the method: as §1
The subject of test [8] is CTX-M-15-containing Escherichia coli strain (TK-1747). The test is described as above. As to conditions: Escherichia coli. The test is classed as cell-based. The gist of the method:
as §1

For test [9], the system named is Pseudomonas aeruginosa strain ATCC27853. Described as above. As to conditions: Pseudomonas aeruginosa, ATCC27853. Type of test: cell-based. The gist of the method: as §1
In test [10] the test system is multidrug-resistant Pseudomonas aeruginosa strain (S-2838 strain). The experiment in a line: Test for protection against systemic infection in mouse with multidrug-resistant Pseudomonas aeruginosa. Type of test: in vivo. The settings on record: sc, 72 h, read-out: survival rate 3 days after the inoculation with bacteria. The method, then:
As mice, ICR male SPF mice (4 weeks old: 10 mice per group) were used. Clinically isolated multidrug-resistant Pseudomonas aeruginosa strain (S-2838 strain) cultured overnight on a Mueller-Hinton agar plate at 37° C. was cultured on a cation-adjusted Mueller Hinton medium for 5 hours, and then diluted 20-fold with a 10% mucin/phosphate buffer, thereby preparing an inoculum. An infection was induced by intraperitoneally inoculating the mice with the inoculum at 0.5 mL (about 10^6 CFU/mouse). Each test compound was dissolved in physiological saline, and 1 hour after the infection, the compound was subcutaneously administered once to the mice at 40 mg/kg. The control group was administered with the same amount of physiological saline used as a vehicle. The number of surviving mice was recorded 3 days after the infection.
A test for protection against systemic infection in a mouse with multidrug-resistant Pseudomonas aeruginosa was performed in the same manner as in Test Example 2.

On to `Nc1nc(/C(=N/OC2(C(=O)O)CCC2)C(=O)N[C@@H]2C(=O)N3C[C@@](C(=O)O)(N4CCN(NC(=O)C(=O)c5ccc(O)c(O)c5Cl)C4=O)S[C@H]23)cs1` [Example 19, (3R,5R,6R)-6-((Z)-2-(2-aminothiazol-4-yl)-2-((-1-carboxycyclobutoxy)imino)acetamido)-3-(3-(2-(2-chloro-3,4-dihydroxyphenyl)-2-oxoacetamido)-2-oxoimidazolidin-1-yl)-7-oxo-4-thia-1-azabicyclo[3.2.0]heptane-3-carboxylic acid], for which the MIC was 0.25 µg/mL (≈ 0.332 µM) in [1]; 0.25 µg/mL (≈ 0.332 µM) in test [2]; 0.12 µg/mL (≈ 0.159 µM) in test [3]; below 0.06 µg/mL in test [4]; 2 µg/mL (≈ 2.66 µM) in [5]; 0.25 µg/mL (≈ 0.332 µM) in test [6]. For the same compound, the MIC in test [7] came to 0.25 µg/mL (≈ 0.332 µM); in [8] it was 0.5 µg/mL (≈ 0.664 µM); in [9], 0.25 µg/mL (≈ 0.332 µM). Besides, in test [10], the responders at 40 mg/kg is at least 90%.
With `CC(C)(O/N=C(\C(=O)N[C@@H]1C(=O)N2C[C@@](C(=O)O)(N3CCN(NC(=O)C(=O)c4ccc(O)c(O)c4Cl)C3=O)S[C@H]12)c1nsc(N)n1)C(=O)O` [Example 23, (3R,5R,6R)-6-((Z)-2-(5-amino-1,2,4-thiadiazol-3-yl)-2-(((2-carboxypropan-2-yl)oxy)imino)acetamido)-3-(3-(2-(2-chloro-3,4-dihydroxyphenyl)-2-oxoacetamido)-2-oxoimidazolidin-1-yl)-7-oxo-4-thia-1-azabicyclo[3.2.0]heptane-3-carboxylic acid], the MIC is 1 µg/mL (≈ 1.35 µM) in test [1]; 0.25 µg/mL (≈ 0.337 µM) in test [2]; 0.5 µg/mL (≈ 0.674 µM) in test [3]; below 0.06 µg/mL in test [4]; 0.5 µg/mL (≈ 0.674 µM) in [5]; 0.25 µg/mL (≈ 0.337 µM) in test [6]. For the same compound, the minimum inhibitory concentration (MIC) is 1 µg/mL (≈ 1.35 µM) in test [7], 0.25 µg/mL (≈ 0.337 µM) in test [8] and 0.25 µg/mL (≈ 0.337 µM) in test [9]. In addition, in [10], the responders at 40 mg/kg was at least 90%.
Take `Nc1nc(/C(=N/OC2(C(=O)O)CC2)C(=O)N[C@@H]2C(=O)N3C[C@@](C(=O)O)(N4CCN(NC(=O)CCNC(=O)C(=O)c5ccc(O)c(O)c5Cl)C4=O)S[C@H]23)cs1` [Example 31, (3R,5R,6R)-6-((Z)-2-(2-aminothiazol-4-yl)-2-((1-carboxycyclopropoxy)imino)acetamido)-3-(3-(3-(2-(2-chloro-3,4-dihydroxyphenyl)-2-oxoacetamido)propanamido)-2-oxoimidazolidin-1-yl)-7-oxo-4-thia-1-azabicyclo[3.2.0]heptane-3-carboxylic acid]: the MIC in test [1] is 1 µg/mL (≈ 1.23 µM); in [2] it was 0.12 µg/mL (≈ 0.148 µM); in test [3] it was 1 µg/mL (≈ 1.23 µM); in [4], 0.12 µg/mL (≈ 0.148 µM); in [5], below 0.06 µg/mL; in test [6] it was 0.25 µg/mL (≈ 0.309 µM). The MIC in test [7] turned out to be 0.5 µg/mL (≈ 0.617 µM); in [8] it was 1 µg/mL (≈ 1.23 µM); in test [9] it was 0.25 µg/mL (≈ 0.309 µM). Further, the responders at 40 mg/kg in test [10] is at least 90%.
Turning to `COCC(NC(=O)C(=O)c1ccc(O)c(O)c1Cl)C(=O)NN1CCN([C@]2(C(=O)O)CN3C(=O)C(NC(=O)/C(=N\OC(C)(C)C(=O)O)c4csc(N)n4)[C@H]3S2)C1=O` (stereo partly drawn) [Example 139, (3R,5R,6R)-6-((Z)-2-(2-aminothiazol-4-yl)-2-(((2-carboxypropan-2-yl)oxy)imino)aceta-mido)-3-(3-((R)-2-(2-(2-chloro-3,4-dihy-droxyphenyl)-2-oxo-acetamido)-3-methoxy-propanamido)-2-oxo-imidazolidin-1-yl)-7-oxo-4-thia-1-azabicyclo-[3.2.0]heptane-3-car-boxylic acid], the MIC is 0.5 µg/mL (≈ 0.594 µM) in [1]; 1 µg/mL (≈ 1.19 µM) in test [2]; 4 µg/mL (≈ 4.75 µM) in test [3]; 0.12 µg/mL (≈ 0.142 µM) in [4]; 0.5 µg/mL (≈ 0.594 µM) in test [5]; 1 µg/mL (≈ 1.19 µM) in [6]. Further, the minimal inhibitory concentration (MIC) in test [7] is 2 µg/mL (≈ 2.37 µM); in test [8], 2 µg/mL (≈ 2.37 µM); in test [9] it was 1 µg/mL (≈ 1.19 µM). For the same compound, the responders at 40 mg/kg in test [10] is at least 90%.
For the compound `CC(C)[C@H](O/N=C(\C(=O)NC1C(=O)N2C[C@@](C(=O)O)(N3CCN(NC(=O)C(=O)c4ccc(O)c(O)c4Cl)C3=O)S[C@H]12)c1csc(N)n1)C(=O)O` (stereo partly drawn) [Example 114, (3R,5R,6R)-6-((Z)-2-(2-aminothiazol-4-yl)-2-(((S)-1-carboxy-2-methylpropoxy)imino)-acetamido)-3-(3-(2-(2-chloro-3,4-dihydroxy-phenyl)-2-oxoaceta-mido)-2-oxoimidazol-idin-1-yl)-7-oxo-4-thia-1-azabicyclo[3.2.0]-heptane-3-carboxylic acid], the MIC in test [1] was 4 µg/mL (≈ 5.3 µM); in [2], 0.25 µg/mL (≈ 0.331 µM); in test [3], 0.25 µg/mL (≈ 0.331 µM); in test [4], below 0.06 µg/mL; in test [5], 1 µg/mL (≈ 1.32 µM); in [6] it was 1 µg/mL (≈ 1.32 µM). In addition, the minimal inhibitory concentration (MIC) in [7] stood at 2 µg/mL (≈ 2.65 µM); in test [8], 0.25 µg/mL (≈ 0.331 µM); in test [9] it was 2 µg/mL (≈ 2.65 µM). For the same compound, in [10], the responders at 40 mg/kg was at least 90%.
Regarding `CC(C)(O/N=C(\C(=O)NC1C(=O)N2C[C@@](C(=O)O)(N3CCN(NC(=O)CCNC(=O)/C(=N\O)c4ccc(O)c(O)c4Cl)C3=O)S[C@H]12)c1csc(N)n1)C(=O)O` (stereo partly shown) [Example 122], the minimal inhibitory concentration (MIC) in test [1] is 2 µg/mL (≈ 2.42 µM); in test [2] it was 0.5 µg/mL (≈ 0.604 µM); in test [3] it was 1 µg/mL (≈ 1.21 µM); in test [4], below 0.06 µg/mL; in test [5] it was 2 µg/mL (≈ 2.42 µM); in test [6], 2 µg/mL (≈ 2.42 µM). Besides, the results for the MIC in [7], in test [8] and in [9] were 2 µg/mL (≈ 2.42 µM), 0.5 µg/mL (≈ 0.604 µM) and 1 µg/mL (≈ 1.21 µM), respectively. Further, in test [10], the responders at 40 mg/kg is at least 90%.
In the case of `CC(C)(O/N=C(\C(=O)NC1C(=O)N2C[C@@](C(=O)O)(N3CCN(NC(=O)/C(=N\O)c4ccc(O)c(O)c4Cl)C3=O)S[C@H]12)c1csc(N)n1)C(=O)O` (stereo partly shown) [Example 117], the minimal inhibitory concentration (MIC) in test [1] is 2 µg/mL (≈ 2.65 µM); in test [2] it was 0.25 µg/mL (≈ 0.331 µM); in [3], 0.5 µg/mL (≈ 0.661 µM); in test [4] it was below 0.06 µg/mL; in [5] it was 0.25 µg/mL (≈ 0.331 µM); in [6], 0.5 µg/mL (≈ 0.661 µM). The MIC was 2 µg/mL (≈ 2.65 µM) in test [7], 0.12 µg/mL (≈ 0.159 µM) in test [8] and 2 µg/mL (≈ 2.65 µM) in [9]. Also, the responders at 40 mg/kg in [10] was at least 90%.
